Data published in US8367695B2, “Condensed tetrahydroquinoline derivative and use thereof for medical purposes” (Mitsubishi Tanabe Pharma Corporation, priority 2007, dated 2013).

Target: T1, human recombinant progesterone receptor-B (PRB) (Homo sapiens, UniProt P06401)
T1 construct: purchased Invitrogen (Carlsbad, Calif.)
T1 sequence (P06401 1-933): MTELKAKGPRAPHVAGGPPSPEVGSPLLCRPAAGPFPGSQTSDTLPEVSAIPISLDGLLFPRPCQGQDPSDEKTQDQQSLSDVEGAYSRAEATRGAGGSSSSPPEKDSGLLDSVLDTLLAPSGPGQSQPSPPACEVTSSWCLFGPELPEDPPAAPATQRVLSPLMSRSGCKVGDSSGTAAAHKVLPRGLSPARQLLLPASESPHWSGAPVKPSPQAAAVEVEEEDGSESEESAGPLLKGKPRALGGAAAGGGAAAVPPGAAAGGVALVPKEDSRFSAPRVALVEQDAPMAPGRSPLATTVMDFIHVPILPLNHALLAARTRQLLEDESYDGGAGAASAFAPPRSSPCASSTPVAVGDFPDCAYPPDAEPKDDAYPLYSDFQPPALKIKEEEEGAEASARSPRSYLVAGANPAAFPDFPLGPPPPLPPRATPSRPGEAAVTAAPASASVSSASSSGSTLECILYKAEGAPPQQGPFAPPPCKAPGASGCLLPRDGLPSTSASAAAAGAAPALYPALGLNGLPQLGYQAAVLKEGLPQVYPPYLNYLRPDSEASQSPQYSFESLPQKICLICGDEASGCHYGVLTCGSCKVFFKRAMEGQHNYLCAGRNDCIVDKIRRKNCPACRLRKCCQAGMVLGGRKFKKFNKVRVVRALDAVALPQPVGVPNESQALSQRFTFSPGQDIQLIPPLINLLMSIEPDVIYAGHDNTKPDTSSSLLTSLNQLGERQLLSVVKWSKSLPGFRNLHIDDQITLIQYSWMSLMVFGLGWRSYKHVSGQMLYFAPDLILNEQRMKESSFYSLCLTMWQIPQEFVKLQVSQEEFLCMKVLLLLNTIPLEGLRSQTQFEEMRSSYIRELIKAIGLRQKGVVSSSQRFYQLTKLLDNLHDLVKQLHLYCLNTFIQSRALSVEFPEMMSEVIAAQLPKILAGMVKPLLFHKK
Assay: Radioactive ligand binding test, PRB cytosol, [3H]-Prog
Details: [3H]-Prog about 5 nM, PRB cytosol, 4° C.; Cheng-Prusoff, Kd about 3.5 nM; read-out: PR (Ki: nM)
From the text: Radioactive Ligand Binding Test Using Cytosols of Human Glucocorticoids Receptor, Progesterone Receptor and Mineralocorticoid Receptor
The procedures described in Neuroimmunomodulation (1994, 1, p. 66-73) and Invest. Opthalmol. Vis. Sci. (1996, 37, p. 805-813) were modified and used. In brief, cytosol preparations of human recombinant glucocorticoids receptor (GR) and human recombinant progesterone receptor-B (PRB) were purchased from Invitrogen (Carlsbad, Calif.), and a cytosol preparation of human recombinant mineralocorticoid receptor (MR) was prepared by our company (Yokohama, JP). MR cDNA was cloned into a baculovirus expression vector and expressed in insect cell Sf9. The procedures described in J. Biol. Chem. (1991, 266, p. 18072-18081), Proc. Natl. Acad. Sci. USA (1991, 88, p. 10681-10685) and Bac-to-Bac (registered trade mark) Baculovirus Expression Systems technical manual (Invitrogen) were partly modified and used as the procedures for MR gene cloning up to preparation of recombinant receptor cytosol. [^3H]-Dexamethasone (Dex, specific activity 91.0 Ci/mmol) was purchased from GE Healthcare (Buckinghamshire, UK), and [^3H]-progesterone (Prog, specific activity 103 Ci/mmol) and [3H]-aldosterone (Ald, specific activity 87.9 Ci/mmol) were each purchased from PerkinElmer (Boston, Mass.). Polypropylene round-bottomed 96 well plate was obtained from ABgene (Epsom, UK). Dimethyl Sulfoxide (DMSO) and hydrochloric acid were obtained from Kanto Chemical (TOKYO, JP). Trizma Base (Tris), Bovine Serum Albumin (BSA) and Sodium tungstate dihydrate were obtained from Sigma Chemicals (St. Louis, Mo.). Dithiothreitol (DTT) and Dextran 70 were obtained from GE Healthcare (Buckinghamshire, UK). Glycerol was obtained from Junsei Chemical (TOKYO, JP). Norit® “SX-II” was obtained from Wako Pure Chemical Industries, Ltd. (Osaka, JP). MeltiLex™, A, Printed Filtermat A and Sample Bag were obtained from PerkinElmer (Boston, Mass.).
As a buffer for GR binding assay, 25 mM Tris-HCl (4° C., pH 7.4)/1 mM EDTA·2Na/1 mM DTT/0.1% BSA was prepared and used. As buffers for PRB and MR binding assay, 10 mM Tris-HCl (4° C., pH 7.4)/1 mM DTT/0.1% BSA/10% glycerol and 20 mM Tris-HCl (4° C., pH 7.4)/1 mM EDTA·2Na/10% glycerol/20 mM sodium tungstate were respectively prepared and used. As dextran-coated charcoal (DCC) for B/F separation, 0.75% Dextran 70/0.75% Norit® SX-II/10 mM Tris-HCl (4° C., pH 7.4) was prepared and used.
Compound storage solutions (5-20 mM) were prepared using DMSO. The storage solutions were diluted with DMSO to 0.1 mM (for GR) and 0.3 mM (for PRB and MR), and further diluted 20-fold with distilled water to give solutions. Then, the preparations were diluted to each concentration with 5% DMSO solution. 1% DMSO was present at the time of the binding assay.
In the case of PRB binding assay, [^3H]-Prog (about 5 nM), PRB cytosol (concentration of function receptor: about 4 pmol/mL), a test compound and a binding buffer were mixed in a total volume of 50 μL, and the mixture was stood at 4° C. for 30 min or longer. A specific binding was defined to be the difference in the [^3H]-Prog binding between the presence and the absence of 1 μM unlabeled Prog.
After the reaction, 50 μL of DCC was added to each well and blended. Thereafter, the mixture was stood at 4° C. for 10 min. The plate was applied to high-speed cooling centrifuge under the conditions of 4° C., 2000 rpm, 5 min to perform B/F separation. A given amount of the supernatant was recovered, which was spotted on Filtermat A of 96 well format (PerkinElmer) and rapidly dried at a high temperature. Then, solid scintillator MeltiLex A (PerkinElmer) was melted on Filtermat A. The mixture was placed in a Sample Bag (PerkinElmer), and the level of radioactivity was measured by plate reader 1450 Micro Beta TRILUX (PerkinElmer).
Measurement of Inhibition Constant (Ki)

| Structure (SMILES) | Ki |
| --- | --- |
| CC1(C)Nc2c(cc(-c3cccc4nccn34)c3c2OC(F)(F)O3)C(C)(C)C1=O [Example 82, 2,2-difluoro-4-(imidazo[1,2-a]pyridin-5-yl)-6,6,8,8-tetramethyl-6,7,8,9-tetrahydro-[1,3]dioxolo[4,5-h]quinolin-7-one] | > 1250 nM |
| CC1(C)Nc2c(cc(-c3cccc4nccn34)c3c2CCC3)C(C)(C)C1=O [Example 14, 6-(imidazo[1,2-a]pyridin-5-yl)-2,2,4,4-tetramethyl-2,3,4,7,8,9-hexahydro-1H-cyclopenta[h]quinolin-3-one] | > 1250 nM |
| Cc1noc(C)c1-c1cc2c(c3c1C(=O)CC3)NC(C)(C)C(=O)C2(C)C [Example 104, 6-(3,5-dimethylisoxazol-4-yl)-2,2,4,4-tetramethyl-2,3,4,7,8,9-hexahydro-1H-cyclopenta[h]quinoline-3,7-dione] | > 1250 nM |
| C=C1C(C)(C)Nc2c(cc(-c3c(C)ncn3C)c3c2CCC3)C1(C)C [Example 29, 6-(3,5-dimethyl-3H-imidazol-4-yl)-2,2,4,4-tetramethyl-3-methylene-2,3,4,7,8,9-hexahydro-1H-cyclopenta[h]quinoline] | > 1250 nM |
| C=CCC1(C)C(=O)C(C)(C)Nc2c1cc(-c1c(C)noc1C)c1c2CCC1 (centres unmarked) [Example 51, 4-allyl-6-(3,5-dimethylisoxazol-4-yl)-2,2,4-trimethyl-2,3,4,7,8,9-hexahydro-1H-cyclopenta[h]quinolin-3-one] | > 1250 nM |
